Among the data in PubChem BioAssay AID1259407 (Chemical Carcinogenesis Research Information System (CCRIS), 2018) are mutagenic call values, retold here.

This data set deals with CCRIS mutagenicity, Ames/micronucleus/aberration tests. Put plainly: CCRIS mutagenicity studies. The conditions noted are these: Test System: AMES SALMONELLA TYPHIMURIUM
[1] abbreviates: Strain/Indicator: TA98, Metabolic Activation: NONE, Method: PREINCUBATION
Setting [2] is: Strain/Indicator: TA100, Metabolic Activation: NONE, Method: PREINCUBATION
Setting [3] is: Strain/Indicator: TA1535, Metabolic Activation: NONE, Method: PREINCUBATION
Where [4] appears, read: Strain/Indicator: TA1537, Metabolic Activation: NONE, Method: PREINCUBATION
Setting [5] is: Strain/Indicator: TA98, Metabolic Activation: RAT, LIVER, S-9, AROCLOR 1254, Method: STANDARD PLATE.
The mark [6] stands for this setting: Strain/Indicator: TA100, Metabolic Activation: RAT, LIVER, S-9, AROCLOR 1254, Method: STANDARD PLATE.
[7] abbreviates: Strain/Indicator: TA100, Metabolic Activation: NONE, Method: STANDARD PLATE.

Calls of active or inactive are those of the source. How the calls were made is not given here.

Take `CC(C)CNCC(C)C`: the mutagenic call (Strain/Indicator: TA98, Metabolic Activation: HAMSTER, LIVER, S-9, AROCLOR 1254 (10%), Method: PREINCUBATION) was “inactive; negative”; the mutagenic call under setting [1] was “inactive; negative”; the mutagenic call (Strain/Indicator: TA98, Metabolic Activation: RAT, LIVER, S-9, AROCLOR 1254 (10%), Method: PREINCUBATION) is “inactive; negative”; the mutagenic call (Strain/Indicator: TA100, Metabolic Activation: HAMSTER, LIVER, S-9, AROCLOR 1254 (10%), Method: PREINCUBATION) was “inactive; negative”; the mutagenic call under setting [2] was “inactive; negative”; the mutagenic call (Strain/Indicator: TA100, Metabolic Activation: RAT, LIVER, S-9, AROCLOR 1254 (10%), Method: PREINCUBATION) is “inactive; negative”. For the same molecule, the mutagenic call reads like this: (Strain/Indicator: TA1535, Metabolic Activation: HAMSTER, LIVER, S-9, AROCLOR 1254 (10%), Method: PREINCUBATION) “inactive; negative”; under setting [3], “inactive; negative”; (Strain/Indicator: TA1535, Metabolic Activation: RAT, LIVER, S-9, AROCLOR 1254 (10%), Method: PREINCUBATION) “inactive; negative”; (Strain/Indicator: TA1537, Metabolic Activation: HAMSTER, LIVER, S-9, AROCLOR 1254 (10%), Method: PREINCUBATION) “inactive; negative”; under setting [4], “inactive; negative”; (Strain/Indicator: TA1537, Metabolic Activation: RAT, LIVER, S-9, AROCLOR 1254 (10%), Method: PREINCUBATION) “inactive; negative”.
As to `CC1=CC(=C(C#N)C#N)C=C(C=Cc2ccc(N(C)C)cc2)O1`, the mutagenic call is “active; positive” (Strain/Indicator: TA96, Metabolic Activation: RAT, LIVER, S-9, AROCLOR 1254, Method: STANDARD PLATE); “active; positive” (Strain/Indicator: TA97, Metabolic Activation: RAT, LIVER, S-9, AROCLOR 1254, Method: STANDARD PLATE); “active; positive” under setting [5]; “active; positive” under setting [6]; “active; positive” (Strain/Indicator: TA102, Metabolic Activation: RAT, LIVER, S-9, AROCLOR 1254, Method: STANDARD PLATE); “active; positive” (Strain/Indicator: TA104, Metabolic Activation: RAT, LIVER, S-9, AROCLOR 1254, Method: STANDARD PLATE). Further, the mutagenic call by setting is: (Strain/Indicator: TA1538, Metabolic Activation: NONE, Method: STANDARD PLATE) “inactive; negative”; (Strain/Indicator: TA1538, Metabolic Activation: RAT, LIVER, MICROSOMES, 3-METHYLCHOLANTHRENE, Method: STANDARD PLATE) “active; positive”; (Strain/Indicator: TA1538, Metabolic Activation: RAT, LIVER, MICROSOMES, AROCLOR 1254, Method: STANDARD PLATE) “active; positive”; (Strain/Indicator: TA1538, Metabolic Activation: RAT, LIVER, MICROSOMES, PHENOBARBITAL, Method: STANDARD PLATE) “active; positive”; (Strain/Indicator: TA1538, Metabolic Activation: RAT, LIVER, MICROSOMES, Method: STANDARD PLATE) “active; positive”; (Strain/Indicator: TA1538, Metabolic Activation: RAT, LIVER, S-9, AROCLOR 1254, Method: STANDARD PLATE) “active; positive”.
Turning to `c1ccc2c(OC[C@@H]3CO3)cccc2c1`, the mutagenic call under setting [7] is “active; positive”.
With `C1CNCCN1`, the mutagenic call runs as follows: (Strain/Indicator: TA98, Metabolic Activation: HAMSTER, LIVER, S-9, AROCLOR 1254, Method: PREINCUBATION) “inactive; negative”; under setting [1], “inactive; negative”; (Strain/Indicator: TA98, Metabolic Activation: RAT, LIVER, S-9, AROCLOR 1254, Method: PREINCUBATION) “inactive; negative”; (Strain/Indicator: TA98, Metabolic Activation: RAT, LIVER, S-9, PCB, Method: PREINCUBATION) “inactive; negative”; (Strain/Indicator: TA100, Metabolic Activation: HAMSTER, LIVER, S-9, AROCLOR 1254, Method: PREINCUBATION) “inactive; negative”; under setting [2], “inactive; negative”. In addition, the mutagenic call is, setting by setting: (Strain/Indicator: TA100, Metabolic Activation: RAT, LIVER, S-9, AROCLOR 1254, Method: PREINCUBATION) “inactive; negative”; (Strain/Indicator: TA100, Metabolic Activation: RAT, LIVER, S-9, PCB, Method: PREINCUBATION) “inactive; negative”; (Strain/Indicator: TA1535, Metabolic Activation: HAMSTER, LIVER, S-9, AROCLOR 1254, Method: PREINCUBATION) “inactive; negative”; under setting [3], “inactive; negative”; (Strain/Indicator: TA1535, Metabolic Activation: RAT, LIVER, S-9, AROCLOR 1254, Method: PREINCUBATION) “inactive; negative”; (Strain/Indicator: TA1537, Metabolic Activation: HAMSTER, LIVER, S-9, AROCLOR 1254, Method: PREINCUBATION) “inactive; negative”. Also, the mutagenic call reads like this: under setting [4], “inactive; negative”; (Strain/Indicator: TA1537, Metabolic Activation: RAT, LIVER, S-9, AROCLOR 1254, Method: PREINCUBATION) “inactive; negative”.
In the case of `COc1ccc2c(c1)-c1nccc3cc(OC)c(O)c(c13)C2=O`, the mutagenic call (Strain/Indicator: TA98, Metabolic Activation: RAT, LIVER, S-9, PHENOBARBITAL AND BETA-NAPHTHOFLAVONE, Method: PREINCUBATION) is “active; positive”.
In the case of `CCOC(=O)c1cccc2cccnc12`, the mutagenic call is “inactive; negative” (Strain/Indicator: TA98, Metabolic Activation: NONE, Method: STANDARD PLATE); “inactive; negative” under setting [5]; “inactive; negative” under setting [7]; “inactive; negative” under setting [6]; “inactive; negative” (Strain/Indicator: TA1535, Metabolic Activation: NONE, Method: STANDARD PLATE); “inactive; negative” (Strain/Indicator: TA1535, Metabolic Activation: RAT, LIVER, S-9, AROCLOR 1254, Method: STANDARD PLATE). The mutagenic call (Strain/Indicator: TA1537, Metabolic Activation: NONE, Method: STANDARD PLATE) was “inactive; negative” and the mutagenic call (Strain/Indicator: TA1537, Metabolic Activation: RAT, LIVER, S-9, AROCLOR 1254, Method: STANDARD PLATE) is “inactive; negative”.
Consider `O=P(O)(O)OC(CO)CO`, for which the mutagenic call is, setting by setting: (Strain/Indicator: TA97, Metabolic Activation: NONE, Method: PREINCUBATION) “inactive; negative”; (Strain/Indicator: TA97, Metabolic Activation: RAT, LIVER, S-9, AROCLOR 1254, Method: PREINCUBATION) “inactive; negative”; (Strain/Indicator: TA102, Metabolic Activation: NONE, Method: PREINCUBATION) “inactive; negative”; (Strain/Indicator: TA102, Metabolic Activation: RAT, LIVER, S-9, AROCLOR 1254, Method: PREINCUBATION) “inactive; negative”.
